Target: T1, N-terminal HiBiT tagged BCL6 (Homo sapiens, UniProt P41182)
T1 construct: expressed in transfected cells; host or cells: HT1080 (ATCC CCL-121), stably transduced with lentivirus pLV-UBC-N-HiBiT-BCL6-PGK-puro
Assay: HiBiT based degradation assay
Type: cell-based
Details: HT1080 cells expressing N-terminal HiBiT tagged BCL6, 5 hours of incubation; for Ymin (5 hr): BCL6 degradation normalized with DMSO control; for DC50: four-parameter logistic model, read-out: EC50 (5 hr)
Summary of the method: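 Degradation measured by luminescence from the Nano-Glo HiBiT lytic reagent (15 min, room temperature), normalized to DMSO controls and fitted to a four-parameter curve.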

Row | SMILES | Ymin (5 hr) | DC50 [µM]
1 | CNC(=O)COc1cc2cc(Nc3nc(N4CCN(CC5CCN(c6cccc7c6C(=O)N(C6CCC(=O)NC6=O)C7=O)CC5)CC4)ncc3Cl)cnc2n(C)c1=O (stereo not drawn) [Compound 102, 2-((6-((5-chloro-2-(4-((1-(2-(2,6-dioxopiperidin-3-yl)-1,3-dioxoisoindolin-4-yl)piperidin-4-yl)methyl)piperazin-1-yl)pyrimidin-4-yl)amino)-1-methyl-2-oxo-1,2-dihydro-1,8-naphthyridin-3-yl)oxy)-N-methylacetamide] | ++++ (Ymin < 30%) | 0.01 to 0.1
2 | CNC(=O)COc1cc2cc(Nc3nc(N4CCC([C@@](C)(O)C5CCN(c6ccc7c(C8CCC(=O)NC8=O)nn(C)c7c6)CC5)CC4)ncc3Cl)cnc2n(C(C)C)c1=O (single isomer, unassigned) [Compound 201a] | ++ (50% ≤ Ymin < 70%) | < 0.01
3 | CNC(=O)COc1cc2cc(Nc3nc(N4CCN(CC5CCN(c6ccc7c(C8CCC(=O)NC8=O)nn(C)c7c6)CC5)CC4)ncc3Cl)cnc2n(C)c1=O (stereo not drawn) [Compound 107, 2-((6-((5-chloro-2-(4-((1-(3-(2,6-dioxopiperidin-3-yl)-1-methyl-1H-indazol-6-yl)piperidin-4-yl)methyl)piperazin-1-yl)pyrimidin-4-yl)amino)-1-methyl-2-oxo-1,2-dihydro-1,8-naphthyridin-3-yl)oxy)-N-methylacetamide] | +++ (30% ≤ Ymin < 50%) | < 0.01
4 | CNC(=O)COc1cc2cc(Nc3nc(N4CCC5(CCC(CN6CCC(c7ccc8c(C9CCC(=O)NC9=O)nn(C)c8c7)CC6)CC5)CC4)ncc3Cl)cnc2n(C(C)C)c1=O (stereo not drawn) [Compound 237, 2-((6-((5-chloro-2-(9-((4-(3-(2,6-dioxopiperidin-3-yl)-1-methyl-1H-indazol-6-yl)piperidin-1-yl)methyl)-3-azaspiro[5.5]undecan-3-yl)pyrimidin-4-yl)amino)-1-isopropyl-2-oxo-1,2-dihydro-1,8-naphthyridin-3-yl)oxy)-N-methylacetamide] | ++++ (Ymin < 30%) | < 0.01
5 | CNC(=O)COc1cc2cc(Nc3cc(N4CCC(CN5CCN(c6cccc7c(C8CCC(=O)NC8=O)nn(C)c67)[C@H](C)C5)CC4)ncc3Cl)cnc2n(C(C)C)c1=O (stereo partly drawn) [Compound 217a, 2-[[6-[[5-chloro-2-[4-[[(3R)-4-[3-(2,6-dioxo-3-piperidyl)-1-methyl-indazol-7-yl]-3-methyl-piperazin-1-yl]methyl]-1-piperidyl]-4-pyridyl]amino]-1-isopropyl-2-oxo-1,8-naphthyridin-3-yl]oxy]-N-methyl-acetamide] | ++++ (Ymin < 30%) | 0.01 to 0.1
6 | CNC(=O)COc1cc2cc(Nc3nc(N4CCC(CN5CCN(c6ccc7c(C8CCC(=O)NC8=O)nn(C)c7c6)CC5)CC4)ncc3Cl)cnc2n(C(C)C)c1=O (stereo not drawn) [Compound 214, 2-((6-((5-chloro-2-(4-((4-(3-(2,6-dioxopiperidin-3-yl)-1-methyl-1H-indazol-6-yl)piperazin-1-yl)methyl)piperidin-1-yl)pyrimidin-4-yl)amino)-1-isopropyl-2-oxo-1,2-dihydro-1,8-naphthyridin-3-yl)oxy)-N-methylacetamide] | +++ (30% ≤ Ymin < 50%) | < 0.01
7 | CNC(=O)COc1cc2cc(Nc3nc(N4CC[C@H](CN5CCN(c6cccc7c(C8CCC(=O)NC8=O)nn(C)c67)CC5)[C@@H](F)C4)ncc3Cl)cnc2n(C(C)C)c1=O (relative stereo) [Compound 238b, 2-((6-((5-chloro-2-((3R,4R)-4-((4-(3-(2,6-dioxopiperidin-3-yl)-1-methyl-1H-indazol-7-yl)piperazin-1-yl)methyl)-3-fluoropiperidin-1-yl)pyrimidin-4-yl)amino)-1-isopropyl-2-oxo-1,2-dihydro-1,8-naphthyridin-3-yl)oxy)-N-methylacetamide] | ++++ (Ymin < 30%) | 0.01 to 0.1
8 | CNC(=O)COc1cc2cc(Nc3nc(N4CCC(CN5CCN(c6cccc7c(C8CCC(=O)NC8=O)nn(C)c67)C[C@@H]5C)CC4)ncc3Cl)cnc2n(C(C)C)c1=O (stereo partly drawn) [Compound 192a, 2-[[6-[[5-chloro-2-[4-[[(2S)-4-[3-(2,6-dioxo-3-piperidyl)-1-methyl-indazol-7-yl]-2-methyl-piperazin-1-yl]methyl]-1-piperidyl]pyrimidin-4-yl]amino]-1-isopropyl-2-oxo-1,8-naphthyridin-3-yl]oxy]-N-methyl-acetamide] | ++++ (Ymin < 30%) | 0.01 to 0.1
9 | CNC(=O)COc1cc2cc(Nc3nc(N4CC[C@@H](CN5CCN(c6cccc7c(C8CCC(=O)NC8=O)nn(C)c67)CC5)[C@H](F)C4)ncc3Cl)cnc2n(C(C)C)c1=O (relative stereo) [Compound 238a, 2-((6-((5-chloro-2-((3S,4S)-4-((4-(3-(2,6-dioxopiperidin-3-yl)-1-methyl-1H-indazol-7-yl)piperazin-1-yl)methyl)-3-fluoropiperidin-1-yl)pyrimidin-4-yl)amino)-1-isopropyl-2-oxo-1,2-dihydro-1,8-naphthyridin-3-yl)oxy)-N-methylacetamide] | ++++ (Ymin < 30%) | 0.01 to 0.1
10 | CNC(=O)COc1cc2cc(Nc3nc(N4CCC([C@H](C)N5CCN(c6cccc7c(C8CCC(=O)NC8=O)nn(C)c67)CC5)CC4)ncc3Cl)cnc2n(C(C)C)c1=O (single isomer, unassigned) [Compound 193b] | ++++ (Ymin < 30%) | 0.01 to 0.1
11 | CNC(=O)COc1cc2cc(Nc3nc(N4C[C@@H](C)N(CC5CCN(c6cccc7c(C8CCC(=O)NC8=O)nn(C)c67)CC5)C[C@@H]4C)ncc3Cl)cnc2n(C(C)C)c1=O (stereo partly drawn) [Compound 179b, 2-[[6-[[5-chloro-2-[(2S,5R)-4-[[1-[3-(2,6-dioxo-3-piperidyl)-1-methyl-indazol-7-yl]-4-piperidyl]methyl]-2,5-dimethyl-piperazin-1-yl]pyrimidin-4-yl]amino]-1-isopropyl-2-oxo-1,8-naphthyridin-3-yl]oxy]-N-methyl-acetamide] | +++ (30% ≤ Ymin < 50%) | 0.1 to 1
12 | CNC(=O)COc1cc2cc(Nc3nc(N4C[C@@H]5[C@@H](CN6CCN(c7cccc8c(C9CCC(=O)NC9=O)nn(C)c78)CC6)[C@@H]5C4)ncc3Cl)cnc2n(C)c1=O (stereo partly drawn) [Compound 136a, 2-((6-((5-chloro-2-((1R,5S,6s)-6-((4-(3-(2,6-dioxopiperidin-3-yl)-1-methyl-1H-indazol-7-yl)piperazin-1-yl)methyl)-3-azabicyclo[3.1.0]hexan-3-yl)pyrimidin-4-yl)amino)-1-methyl-2-oxo-1,2-dihydro-1,8-naphthyridin-3-yl)oxy)-N-methylacetamide] | ++++ (Ymin < 30%) | < 0.01
13 | CNC(=O)COc1cc2cc(Nc3nc(NC4CCC5(CC4)CN(c4ccc6c(C7CCC(=O)NC7=O)nn(C)c6c4)C5)ncc3Cl)cnc2n(C(C)C)c1=O (stereo not drawn) [Compound 206, 2-[[6-[[5-chloro-2-[[2-[3-(2,6-dioxo-3-piperidyl)-1-methyl-indazol-6-yl]-2-azaspiro[3.5]nonan-7-yl]amino]pyrimidin-4-yl]amino]-1-isopropyl-2-oxo-1,8-naphthyridin-3-yl]oxy]-N-methyl-acetamide] | ++++ (Ymin < 30%) | < 0.01
14 | CNC(=O)COc1cc2cc(Nc3nc(N4CCC(C(=O)N5CCN(c6ccc7c(C8CCC(=O)NC8=O)nn(C)c7c6)CC5)CC4)ncc3Cl)cnc2n(C(C)C)c1=O (stereo not drawn) [Compound 211, 2-[[6-[[5-chloro-2-[4-[4-[3-(2,6-dioxo-3-piperidyl)-1-methyl-indazol-6-yl]piperazine-1-carbonyl]-1-piperidyl]pyrimidin-4-yl]amino]-1-isopropyl-2-oxo-1,8-naphthyridin-3-yl]oxy]-N-methyl-acetamide] | +++ (30% ≤ Ymin < 50%) | < 0.01
15 | CNC(=O)COc1cc2cc(Nc3nc(N4CC5(CCC(Nc6ccc7c(C8CCC(=O)NC8=O)nn(C)c7c6)CC5)C4)ncc3Cl)cnc2n(C(C)C)c1=O (stereo not drawn) [Compound 182, 2-((6-((5-chloro-2-(7-((3-(2,6-dioxopiperidin-3-yl)-1-methyl-1H-indazol-6-yl)amino)-2-azaspiro[3.5]nonan-2-yl)pyrimidin-4-yl)amino)-1-isopropyl-2-oxo-1,2-dihydro-1,8-naphthyridin-3-yl)oxy)-N-methylacetamide] | ++++ (Ymin < 30%) | < 0.01
16 | CNC(=O)COc1cc2cc(Nc3nc(N4C[C@H](C)N(CC5CCN(c6cccc7c(C8CCC(=O)NC8=O)nn(C)c67)CC5)C[C@H]4C)ncc3Cl)cnc2n(C(C)C)c1=O (stereo partly drawn) [Compound 179a, 2-[[6-[[5-chloro-2-[(2R,5S)-4-[[1-[3-(2,6-dioxo-3-piperidyl)-1-methyl-indazol-7-yl]-4-piperidyl]methyl]-2,5-dimethyl-piperazin-1-yl]pyrimidin-4-yl]amino]-1-isopropyl-2-oxo-1,8-naphthyridin-3-yl]oxy]-N-methyl-acetamide] | +++ (30% ≤ Ymin < 50%) | 0.1 to 1
17 | CNC(=O)COc1cc2cc(Nc3nc(N4CCC5(CC4)CN(CC4CCN(c6cccc7c(C8CCC(=O)NC8=O)nn(C)c67)CC4)C5)ncc3Cl)cnc2n(C)c1=O (stereo not drawn) [Compound 120, 2-((6-((5-chloro-2-(2-((1-(3-(2,6-dioxopiperidin-3-yl)-1-methyl-1H-indazol-7-yl)piperidin-4-yl)methyl)-2,7-diazaspiro[3.5]nonan-7-yl)pyrimidin-4-yl)amino)-1-methyl-2-oxo-1,2-dihydro-1,8-naphthyridin-3-yl)oxy)-N-methylacetamide] | ++++ (Ymin < 30%) | < 0.01
18 | CNC(=O)COc1cc2cc(Nc3nc(N4CCN(CC5CCN(c6ccc7c(C8CCC(=O)NC8=O)nn(C)c7c6)CC5)[C@@H](C)C4)ncc3Cl)cnc2n(C(C)C)c1=O (stereo partly drawn) [Compound 106a, 2-((6-((5-chloro-2-((3S)-4-((1-(3-(2,6-dioxopiperidin-3-yl)-1-methyl-1H-indazol-6-yl)piperidin-4-yl)methyl)-3-methylpiperazin-1-yl)pyrimidin-4-yl)amino)-1-isopropyl-2-oxo-1,2-dihydro-1,8-naphthyridin-3-yl)oxy)-N-methylacetamide] | ++ (50% ≤ Ymin < 70%) | < 0.01
